Assay [1] has as its system SRS-A / leukotriene release from antigen-challenged, sensitized guinea pig lung. Description: Inhibition of SRS-A (leukotriene) release from antigen-challenged, sensitized guinea pig lung. The conditions noted are these: Cavia porcellus; for inhibition: Dose 30 μm (μM). Also on record: inhibition: dose or concentration left out as unconfirmed. It is filed as cell-based. In short, it runs like this: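 Chopped sensitized guinea pig lung fragments (~400 mg) preincubated with or without compound 12 min at 37° C in Tyrode's with 10 mM cysteine, then challenged with 20 μg/ml ovalbumin (final) for 15 min. Ethanol-extracted supernatant leukotrienes measured by [3H]LTC4 RIA (55% LTD4 cross-reactivity); % inhibition versus the same lung without compound.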

Assay [2] has as its system anaphylactic bronchospasm (antigen-induced SRS-A mediated bronchoconstriction). Description: Inhibition of anaphylactic bronchospasm in sensitized guinea pigs. It is filed as in vivo, guinea pig. The note with it: Cavia porcellus, iv, 0.25 h; for inhibition in vivo at 10 mg/kg: Dose 10 mpk, read-out: % Inhibition of anaphylactic bronchospasm. The procedure: The anti-allergy method of this invention is identified by tests which measure a compound's inhibition of anaphylactic bronchospams-in sensitized guinea pigs having antigen-induced SRS-A mediated bronchoconstriction. Allergic bronchospams was measured in actively sensitized guinea pigs by a modification of the procedure of Konzett and Rossler, Arch. Exptl. Pathol. Pharmakol., 194, pp. 71-74 (1940). Male Hartley guinea pigs were sensitized with 5 mg ovalbumin injected ip and 5 mg injected sc in 1 ml saline on day 1 and 5 mg ovalbumin injected ip on day 4. The sensitized animals were used 3-4 weeks later. To measure anaphylactic bronchospasm, sensitized guinea pigs were fasted overnight and the following morning were anesthetized with 0.9 ml/kp ip dialurethane. The trachea and jugular vein were cannulated and the animals were ventilated by a Harvard rodent respirator. A side arm to the tracheal cannula was connected to a Harvard pressure transducer to obtain a continuous measure of intratracheal pressure. An increase in intratracheal pressure was taken as a measure of bronchoconstriction. Each guinea pig was injected iv with 1 mg/kg propranolol, 5 mg/kg indomethacin and 2 mg/kg mepyramine given together in a volume of […]. Fifteen minutes later, the animals were challenged with antigen (0.5 percent ovalbumin) delivered as an aerosol generated from a DeVilbiss Model 65 ultrasonic nebulizer and delivered through the tracheal cannula for 30 seconds. Bronchoconstriction was measured as the peak increase in intratracheal pressure occurring within 15 minutes after antigen challenge.

The target of assay [3] is T1, 5-lipoxygenase (Mus musculus, UniProt P48999).
T1 construct: The IL-3-dependent murine mast cell clone, MC-9, was used to test the effects; endogenous in cells; host or cells: MC-9 (IL-3-dependent murine mast cell clone)
T1 sequence (P48999 1-674): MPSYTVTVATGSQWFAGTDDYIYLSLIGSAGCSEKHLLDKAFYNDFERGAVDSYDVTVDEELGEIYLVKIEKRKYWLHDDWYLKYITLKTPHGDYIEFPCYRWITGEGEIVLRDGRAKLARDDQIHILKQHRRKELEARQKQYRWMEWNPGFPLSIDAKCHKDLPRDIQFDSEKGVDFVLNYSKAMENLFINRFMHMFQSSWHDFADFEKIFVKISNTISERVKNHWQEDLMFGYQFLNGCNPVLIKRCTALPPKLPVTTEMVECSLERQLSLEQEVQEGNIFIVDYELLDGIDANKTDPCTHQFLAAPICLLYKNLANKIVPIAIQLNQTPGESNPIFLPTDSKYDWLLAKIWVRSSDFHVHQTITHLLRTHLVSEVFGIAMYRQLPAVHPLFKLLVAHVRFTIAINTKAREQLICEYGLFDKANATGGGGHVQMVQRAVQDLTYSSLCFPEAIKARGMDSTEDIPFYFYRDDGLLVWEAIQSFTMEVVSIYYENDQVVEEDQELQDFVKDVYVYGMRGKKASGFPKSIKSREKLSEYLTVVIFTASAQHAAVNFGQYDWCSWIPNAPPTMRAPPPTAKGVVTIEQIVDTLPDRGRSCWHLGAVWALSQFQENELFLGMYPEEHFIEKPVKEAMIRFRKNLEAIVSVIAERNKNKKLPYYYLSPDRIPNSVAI
Description: 5-Lipoxygenase assay (murine mast cell clone MC-9). The note with it: MC9, 5 min, MC-9 cell. It is filed as cell-based. As for the experimental part:
The IL-3-dependent murine mast cell clone, MC-9, was used to test the effects of representative compounds of the invention on lipoxygenase activity. The MC-9 cell line was grown in suspension culture (0.4 to 1.2×10^6 cells/ml) in RPMI 1640 medium (Gibco) with 10% fetal bovine serum (Hyclone) and 2-5% conconavalin-A conditioned supernatant (Musch et. al., (1985) Prostagandins 29, 405-4307. Cells were harvested, washed twice by centrifugation, and resuspended in a Ca^++ -free HEPES buffer (25 mM HEPES, 125 mM NaCl, 2.5 mM KCl 0.7 mM MgCl2, 0.5 mM EGTA and 10 mM glucose at pH 7.4).
MC-9 cells (0.39 ml at 7.5×10^6 cells/ml) were preincubated with dimethylsulfoxide (DMSO) vehicle with or without test compound (1 ul) for 4 minutes then incubated for 5 minutes with [^14 C] arachidonic acid (Amersham, 59 Ci/mole) at a 9 uM final concentration, and A23187 (Calbiochem) at a 1 uM final concentration was added in 10 ul of water:ethanol (9:1). The reaction was stopped by addition of methanol (0.4 ml), and cellular debris was removed by centrifugation. Aliquots (250 ul) of the incubations were run on a Waters two pump HPLC system fitted with a Waters C18, 10 u 8×100 mm u-Bondapak radial compression column and C18 "Guard Pak". The column was initially eluted at 3 ml/min with water:methanol:acetic acid (67:33:0.08) containing 1 mM EDTA adjusted to pH 6.0 with ammonium hydroxide (Pump A). At 4 minutes, a linear gradient to reach 100% methanol (Pump B) at 9 minutes was established. Between 13 and 14 minutes, methanol was exchanged for the initial eluting solvent and by 19 minutes the column had been reequilibrated for the next sample. The effluent was analyzed by a continuous flow radioactivity monitor (model ROMONA-D) interfaced with a Hewlett Packard Lab Automation System for quantitation of radioactive products. These were predominantly leukotriene C4 (LTC4) which eluted at 6 minutes, and 5-hydroxyeicosatetraenoic acid (5-HETE) which eluted at 11 minutes (Musch et. al., supra).

In assay [4] the target is T2, 5-lipoxygenase (Homo sapiens, UniProt P09917).
T2 construct: Human polymorphonuclear leukocytes (neutrophils) were obtained from normal healthy volunteers; endogenous in cells; host or cells: human blood neutrophils from healthy volunteers
T2 sequence (P09917 1-674): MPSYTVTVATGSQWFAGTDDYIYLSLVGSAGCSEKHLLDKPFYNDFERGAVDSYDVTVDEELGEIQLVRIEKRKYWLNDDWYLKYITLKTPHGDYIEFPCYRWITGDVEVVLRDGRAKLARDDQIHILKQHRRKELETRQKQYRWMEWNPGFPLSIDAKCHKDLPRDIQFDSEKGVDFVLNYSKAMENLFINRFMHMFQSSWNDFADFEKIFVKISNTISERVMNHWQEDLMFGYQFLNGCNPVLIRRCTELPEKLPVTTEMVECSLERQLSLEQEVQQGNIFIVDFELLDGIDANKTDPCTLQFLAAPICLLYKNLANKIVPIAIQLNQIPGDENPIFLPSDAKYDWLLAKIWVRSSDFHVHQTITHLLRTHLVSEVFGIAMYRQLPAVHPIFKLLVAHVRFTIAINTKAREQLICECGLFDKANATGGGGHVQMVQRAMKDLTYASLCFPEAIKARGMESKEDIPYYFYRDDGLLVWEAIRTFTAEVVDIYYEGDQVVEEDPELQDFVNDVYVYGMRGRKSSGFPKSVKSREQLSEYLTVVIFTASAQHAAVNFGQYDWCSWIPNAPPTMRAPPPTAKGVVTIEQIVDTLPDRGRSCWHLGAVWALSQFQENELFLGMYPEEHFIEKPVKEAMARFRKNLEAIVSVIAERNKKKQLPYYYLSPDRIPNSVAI
Description: 5-Lipoxygenase assay with human neutrophils. It is filed as cell-based. The conditions noted are these: 5 min, Human PMN, dose 15 μm (μM).

Assay [5] concerns arachidonic acid induced mouse ear inflammation. In words: Arachidonic acid mouse ear test. The conditions noted are these: 1 mg/ear, topical, 30 minutes prior to AA challenge. The format is in vivo, mouse (Charles River, female, CD, (SD) BR). The procedure:
Charles River, female, CD, (SD) BR mice, 6 weeks old, are caged 8/group and allowed to acclimate 1-3 weeks prior to use.
Arachidonic acid (AA) is dissolved in reagent grade acetone (2 mg/.01 ml) and stored at -20° C. for a maximum of 1 week prior to use. Inflammatory reactions are induced by applying […] of AA to both surfaces of one ear ([…] total).
Test drugs are dissolved in either reagent grade acetone or aqueous ethanol (only if insoluble in acetone) at the same doses selected by Opas et al., Fed. Proc. 43, Abstract 2983, p. 1927 (1984) and Young et al., J. Invest. Dermatol. 82, pp. 367-371 (1984). These doses are employed to ensure maximum responses and to overcome any difference in topical absorption which could occur with any drug applied in an aqueous ethanol vehicle. The test drug is applied 30 minutes prior to challenge with AA.
The severity of the inflammation is measured as a function of increased ear weight. A 6 mm punch biopsy is removed 1 hour after AA challenge and weighed to the nearest 0.1 mg. Mean ± standard error and all possible comparisons are made via Duncan's Multiple Range Statistic.

Structures can show the parent of a compound that is named as a salt. Where two headings read alike, the source gives them in different places.

Take `COc1cc(OC)c2c(c1)C(C)(C)C(c1ccc(OC)c(OC)c1)=CC2=O`: the inhibition at 50 µM in assay [1] is 55%; at 5-lipoxygenase [3] (read-out: % Inhibition 5-HETE), 95%; at 5-lipoxygenase [3] (read-out: % Inhibition LTC4), 100%. In assay [2], the inhibition in vivo at 10 mg/kg came out at 36%. In addition, the inhibition at 5 µM at 5-lipoxygenase [3] (read-out: % Inhibition 5-HETE) turned out to be 9%; on 5-lipoxygenase [3] (read-out: % Inhibition LTC4), 17%.
Turning to `COc1cc(OC)c2c(c1)C(C)(C)C(c1ccc(OC)c(OC)c1)CC2=NO` (stereo not drawn), the inhibition at 10 µM in assay [1] (Dose 10 μm) was determined as 35%. Further, in assay [1], the inhibition at 50 µM is 75%. For the same molecule, the inhibition in vivo at 10 mg/kg in assay [2] turned out to be 50%. Besides, on 5-lipoxygenase [3] (read-out: % Inhibition 5-HETE), the inhibition at 1 µM turned out to be 28% and the inhibition at 5 µM is 100%. For the same molecule, at 5-lipoxygenase [3] (read-out: % Inhibition LTC4), the inhibition at 1 µM was found to be 26% and the inhibition at 5 µM turned out to be 65%.
With `CC(=O)Oc1cc(OC(C)=O)c2c(c1)C(C)(C)C(c1ccc(OC(C)=O)c(OC(C)=O)c1)=CC2=O` [3-(3,4-diacetyloxyphenyl)-6,8-diacetyloxy-4,4-dimethyl-1(4H)-naphthalenone], in assay [1], the inhibition at 50 µM stood at 48%. Moreover, in assay [2], the inhibition in vivo at 10 mg/kg came out at 7%. Further, the results for the inhibition at 5 µM at 5-lipoxygenase [3] (read-out: % Inhibition 5-HETE) and on 5-lipoxygenase [3] (read-out: % Inhibition LTC4) were 53% and 43%, respectively.
Consider `COc1ccc2c(c1)C(C)(C)C(c1ccc(OC)c(OC)c1)CCN2` (stereo not drawn) [drawing 89 [X=NH; R3/R4=H,H; P=H]], for which, in assay [1], the inhibition is 57%. Also, the inhibition in vivo at 10 mg/kg in assay [2] turned out to be 42%. In addition, the inhibition at 15 µM at 5-lipoxygenase [4] (read-out: % Inhibition 5-HETE) came out at 73%.
For `COc1cc(OC)c2c(c1)C(C)(C)C(c1ccc(OC)c(OC)c1)CCN2` (stereo not drawn) [drawing 89 [X=NH; R3/R4=H,H; P=OCH3]], the inhibition in assay [1] came to 45%. The inhibition in vivo at 10 mg/kg in assay [2] was 34%. Also, the inhibition at 15 µM at 5-lipoxygenase [4] (read-out: % Inhibition 5-HETE) was determined as 39%; at 5-lipoxygenase [4] (read-out: % Inhibition LTB), 63%.
Regarding `COc1cc(OC)c2c(c1)C(C)(C)C(c1ccc(OC)c(OC)c1)CC(=O)N2` (stereo not drawn) [drawing 89 [X=NH; R3/R4=O; P=OCH3]], in assay [1], the inhibition is 65%. Also, the inhibition in vivo at 3 mg/kg in assay [2] (Dose 3 mpk) stood at 20%. Moreover, the values for the inhibition at 15 µM on 5-lipoxygenase [4] (read-out: % Inhibition 5-HETE) and at 5-lipoxygenase [4] (read-out: % Inhibition LTB) were 0% and 2%, respectively.
For the molecule `COc1cc(OC)c2c(c1)C(C)(C)C(c1ccc(OC)c(OC)c1)CC(=O)O2` (stereo not drawn) [drawing 89 [X=O; R3/R4=O; P=OCH3]], in assay [1], the inhibition is 59%. Further, the inhibition in vivo at 10 mg/kg in assay [2] was determined as 4%. In addition, at 5-lipoxygenase [4] (read-out: % Inhibition 5-HETE), the inhibition at 15 µM came out at 9%.
Regarding `COc1cc(OC)c2c(c1)C(C)(C)C(c1ccc(OC)c(OC)c1)CCC2=NO` (stereo not drawn) [drawing 90 [X=NOH; W=H; J=H]], the inhibition in assay [1] is 58%. Besides, the inhibition in vivo at 10 mg/kg in assay [2] was found to be 10%. The inhibition at 15 µM at 5-lipoxygenase [4] (read-out: % Inhibition 5-HETE) is 2%.
Turning to `COc1cc(OC)c2c(c1)C(C)(C)C(c1ccc(OC)c(OC)c1)CC(C)C2=O` (stereo not drawn) [drawing 90 [X=O; W=H; J=CH3]], the inhibition in assay [1] was 61%. In addition, in assay [2], the inhibition in vivo at 10 mg/kg was 53%. Moreover, the inhibition at 15 µM at 5-lipoxygenase [4] (read-out: % Inhibition 5-HETE) is 28%.
In the case of `COc1cc(OC)c2c(c1)C(C)(C)C(c1ccc(OC)c(OC)c1)CCC2=O` (stereo not drawn) [drawing 90 [X=O; W=H; J=H]], the inhibition in assay [1] came to 78%. For the same molecule, the inhibition in vivo at 10 mg/kg in assay [2] amounted to 56%. For the same molecule, the inhibition at 15 µM stood at 51% on 5-lipoxygenase [4] (read-out: % Inhibition 5-HETE) and 45% on 5-lipoxygenase [4] (read-out: % Inhibition LTB).
On to `CC1(C)C(c2ccc(O)c(O)c2)=CC(=O)c2c(O)cc(O)cc21` [trisodium salt of 3(3 4-dihydroxy-phenyl)-6,8-dihydroxy-4,4-dimethyl-1(4H)-naphthalenone], for which the “inhibition (increased ear weight)” value in assay [5] is recorded as 90%.

The values above are taken from patent US5225436A, “Aryl substituted naphthalene derivatives” (Schering Corporation, priority 1991, dated 1993).
